# Several values for one entry are separate records, joined by “and”; a condition that tells them apart may be missing. Equal entries are not always repeated. Where two headings read alike, the source gives them in different places.
# Key:
# [1] = Metabolic stability in human liver microsomes; format: in vitro ADME; conditions: 0-60 minutes, read-out: in vitro intrinsic clearance
# Experimental: Metabolism is an enzymatic process in which a drug is chemically modified into polar metabolites that can be more readily excreted from the body. Metabolism occurs mainly in the liver, and the intestine. The metabolic stability of NP046 was determined in human and mouse liver microsomes using a multiple-time-point method at 0, 5, 10, 30, and 60 minutes [for the methodology see Additional file 5].
# Summary of the assay method for the determination of microsomal stability:
# The assay method was adopted from Obach, 1999, Giuliano et al., 2005, and Naritomi et al., 2001, with a slight modification.
# The liver microsome (human and mouse) was thawed at 37 °C, and diluted to 0.4 mg/ml in a preheated (at 37 °C) 0.1 M phosphate buffer.
# The primary stock solutions (10 mM) of the controls and test compounds were diluted as follows: first in DMSO to obtain 400 µM solutions followed by dilution in phosphate buffer to 40 µM, and were vortex mixed well by vortexing at each step of dilution.
# A reaction premix (in triplicate for each control and test compound) were prepared by mixing 15 µl of the 40 µM solution with 530 µl of 0.4 mg/ml microsome mixture in a premix plate, and mixed carefully using a plate shaker. […]
# The intrinsic clearance (ml/min/kg) was calculated using the equation (Obach et al., 1997): […]
# [2] = Plasma protein binding by ultracentrifugation; format: in vitro ADME; conditions: read-out: PPB (plasma protein binding) (converted)
# Experimental: In this study, since the NSB > 5%, ultracentrifugation was used to assess the PPB property of NP046 [for the methodology see Additional file 3]. […] Procedure for the determination of PPB by Ultracentrifugation (procedure was adopted from Barré et al., 1985; with a slight modification). Thaw plasma aliquots in a water bath at 22 °C. Centrifuge plasma aliquots at 2000 g for 5 minutes, and decant and pool the supernatant. Prepare plasma and PBS samples at a high concentration (1000 ng/ml), and low concentration (10 ng/ml) for all the test compounds under investigation. The PBS samples were used to determine the response of the unbound (or free) drug, and were not subjected to ultracentrifugation. Plasma samples were incubated at 37 °C in a water bath for 20minutes to allow samples to reach physiological temperature, and then the samples were aliquoted into BECKMAN Quick-Seal centrifuge tubes (13 ml). Ultracentrifuge plasma samples at 2 x 10^5 g for 6 hours at 37 °C using BECKMAN L8-[…] ultracentrifuge (80Ti). The supernatant was extracted, and its response was compared with that of the PBS extract after being analysed by the validated LC-MS/MS bioanalytical drug assay methods stated in chapters 8 and 9. PPB% was calculated using the equation: Where T = total drug concentration; and F = free drug concentration.
# [3] = Kinetic solubility (HPLC-UV); format: physicochemical; conditions: aqueous buffer, kinetic from dmso stock, PBS pH 2.0
# Experimental: The concentration of the test compound (x) in PBS samples was calculated from the peak area (y) in its UV chromatogram by extrapolation from the three-point calibration line, using the equation y = ax + b; where a = slope and b = intercept.
# Summary of the assay method for the determination kinetic solubility:
# PBS was prepared and its pH adjusted to 2.0 and 7.4
# primary stock solutions of the test compounds and controls (reserpine and hydrocortisone) in DMSO at 10 mM were prepared
# Samples were briefly vortex mixed
# samples were incubated for 2 hours while mixing in an incubator with orbital shaker at 200 rpm
# samples were centrifuged at 3500 rpm for 15 minutes at 22 °C
# the supernatant of the standards were transferred from the clear 96-well plate into an opaque, round bottom 96-well analysis plate, while the aqueous samples were filtered using a vacuum manifold through a multi-screen filter plate (MSRLN 0450, 0.4 µM), into the same opaque, round bottom 96-well plate
# samples were analysed using HPLC-UV method by injecting the STDs in duplicate, and the samples in singlet.
# [4] = In vivo PK evaluation in mice (blood, LC-MS/MS, non-compartmental analysis); design: species or system male C57BL/6 mice; conditions: for concentration at 7 h: read-out: mean blood concentration at seven hours after dosing
# Experimental: The in vivo PK properties of NP046 were evaluated following oral (50 and 10 mg/kg) and IV (5 mg/kg) administration of the compound in water to male C57BL/6 mice (n = 5). Blood samples were collected via tail bleeding in heparinized tubes at predetermined sampling times on ice, and were stored at -80°C until analysis. Despite the critical problem of obtaining numerous blood samples from a mouse without compromising the health/safety of the animal, blood samples at all the sampling times, i.e. 0.17, 0.5, 1, 3, 5 and 7 hours for the IV dose groups, and 0.5, 1, 3, 5 and 7 hours for the oral dose groups were collected from each mouse. The extraction volume during sample analysis was targeted at the lowest possible volume (20 μl) thereby minimizing the total volume of blood harvested from the animal.
# Blood samples collected from mice following the administration of NP046 together with the calibration standards (STDs) and quality controls (QCs) of NP046 were analyzed using a validated LC-MS/MS assay (for details of the LC-MS/MS assay see Additional file 2). Concentration vs time profiles were constructed and using Summit PK software the data were processed to obtain the PK properties of NP046.
# Blood samples collected from mice after the administration of NP046, together with the calibration standards (STDs) and quality controls (QCs), were analysed using a fully validated LC-MS/MS assay. NP046 concentrations were detectable for up to seven hours after oral and IV dosing. Concentration vs time profiles (Figures 3 and 4) were constructed and the data processed with Summit PK software (non-compartmental analysis) to obtain the PK parameters as presented in Table 2. The LC-MS/MS method performed very well; NP046 concentrations in the mice were detectable for up to seven hours after both 50 and 10 mg/kg oral dosing, with mean concentrations of 0.05 and 0.02 μM, respectively.
# [5] = male, C57BL/6, whole blood, IV 5 mg/kg, mouse
# [6] = male, C57BL/6, whole blood, oral 10 mg/kg, mouse
# [7] = male, C57BL/6, whole blood, oral 50 mg/kg, mouse
smiles,measurement,setting,value
"Oc1cc(CCCc2ccc(F)cc2)ccc1CN1CCCCC1 [NP046, 5-(3-(4-fluorophenyl)propyl)-2-(piperidin-1-ylmethyl)phenol]",microsomal CLint at 0.99 µM,[1],119 µL/min/mg
same,"fraction unbound at 6 h, 10 ng/ml",[2]; at 10 ng/ml,0.797
same,"fraction unbound at 6 h, 1000 ng/ml",[2]; at 1000 ng/ml,0.72
same,solubility at 2 h,[3],185 µM
same,AUC 0 - ∞,"[4]; IV 5 mg/kg, mouse blood",248 ± 12.6 µmol·min/L
same,half-life,"[4]; male, C57BL/6, whole blood, other: oral and IV (range over both), range over oral (50 and 10 mg/kg) and IV (5 mg/kg) groups, mouse, read-out: mean half-life",3.1 to 4.4 h
same,Vd,[4]; [5],16.9 ± 1.3 L/kg
same,half-life,"[4]; male, C57BL/6, whole blood, IV 5 mg/kg, mouse blood, mean ± S.E.M, n = 5, read-out: Apparent t 1/2 (converted)",3.2 ± 0.35 h
same,clearance,"[4]; male, C57BL/6, whole blood, IV 5 mg/kg, mouse, read-out: Blood CL total",62.2 ± 3 mL/min/kg
same,concentration at 7 h,[4]; [5],140 nM
same,Tmax,[4]; [6],0.8 h
same,bioavailability,[4]; [6],6 ± 2.9%
same,Cmax,"[4]; male, C57BL/6, whole blood, oral 10 mg/kg, mouse blood",130 ± 60 nM
same,half-life,"[4]; male, C57BL/6, whole blood, oral 10 mg/kg, mouse blood, mean ± S.E.M, n = 5, read-out: Apparent t 1/2 (converted)",3.1 ± 0.46 h
same,concentration at 7 h,[4]; [6],20 nM
same,Tmax,[4]; [7],0.5 h
same,bioavailability,[4]; [7],3.2 ± 0.47%
same,Cmax,"[4]; male, C57BL/6, whole blood, oral 50 mg/kg, mouse blood",470 ± 100 nM
same,half-life,"[4]; male, C57BL/6, whole blood, oral 50 mg/kg, mouse blood, mean ± S.E.M, n = 5, read-out: Apparent t 1/2 (converted)",4.4 ± 0.6 h
same,concentration at 7 h,[4]; [7],50 nM
same,AUC 0 - ∞,"[4]; oral 10 mg/kg, mouse blood, 10 mg/kg",30 µmol·min/L and 30 ± 14.7 µmol·min/L
same,AUC 0 - ∞,"[4]; oral 50 mg/kg, mouse blood, 50 mg/kg",80 µmol·min/L and 80 ± 8.8 µmol·min/L

# From publication PMC4326489, “Efficacy and pharmacokinetic evaluation of a novel anti-malarial compound (NP046) in a mouse model” (Malaria Journal, 2015)
